Measured values taken from PubChem BioAssay (NCI).
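Briefly, cells in 96-well plates were exposed to five compound concentrations for 48 h, and endpoints were estimated by linear interpolation. GI50 = concentration required for 50% inhibition of growth. Definition used: TGI = concentration required for complete inhibition of growth.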

Experiments:
Assay in all cases: DTP human tumour cell line panel, 48 h
[1] = test system: HOP-92 NSCLC
[2] = test system: MOLT-4 leukemia
[3] = test system: HT29 colon
[4] = test system: SR leukemia
[5] = test system: M14 melanoma
[6] = test system: LOX IMVI melanoma
[7] = test system: SF-268 CNS
[8] = test system: SF-295 CNS
[9] = test system: HCT-116 colon
[10] = test system: UO-31 renal
[11] = test system: TK-10 renal
[12] = test system: OVCAR-5 ovarian
[13] = test system: SK-MEL-2 melanoma
[14] = test system: SK-OV-3 ovarian
[15] = test system: NCI-H23 lung
[16] = test system: HS 578T breast
[17] = test system: OVCAR-8 ovarian
[18] = test system: SK-MEL-5 melanoma
[19] = test system: COLO 205 colon
[20] = test system: HCT-15 colon
[21] = test system: RXF 393 renal
[22] = test system: MALME-3M melanoma
[23] = test system: BT-549 breast
[24] = test system: A498 renal
[25] = test system: KM12 colon
[26] = test system: 786-0 renal
[27] = test system: DU-145 prostate
[28] = test system: RPMI-8226 leukemia
[29] = test system: SNB-75 CNS
[30] = test system: IGROV1 ovarian
[31] = test system: SF-539 CNS
[32] = test system: NCI-H226 lung
[33] = test system: HOP-62 NSCLC
[34] = test system: SN12C renal
[35] = test system: NCI-H522 lung
[36] = test system: K-562 leukemia
[37] = test system: UACC-62 melanoma
[38] = test system: CAKI-1 renal
[39] = test system: SNB-19 CNS
[40] = test system: SK-MEL-28 melanoma
[41] = test system: MCF7 breast
[42] = test system: MDA-MB-435
[43] = test system: ACHN renal
[44] = test system: MDA-MB-231 breast
[45] = test system: T-47D breast
[46] = test system: NCI/ADR-RES ovarian
[47] = test system: NCI-H460 lung
[48] = test system: PC-3 prostate
[49] = test system: HCC-2998 colon
[50] = test system: UACC-257 melanoma
[51] = test system: A549 NSCLC
[52] = test system: SW-620 colon
[53] = test system: HL-60(TB) leukemia
[54] = test system: OVCAR-4 ovarian
[55] = test system: OVCAR-3 ovarian
[56] = test system: U251 CNS
[57] = test system: CCRF-CEM leukemia

COc1ccc(-c2c(-c3cc(OC)c(OC)c(OC)c3)nc3sc(C4CC4)nn23)cc1OC
GI50 [1]: 0.58 µM | TGI [1]: 9 µM | GI50 [2]: 9.94 µM | TGI [2]: 72 µM | GI50 [3]: 3.48 µM | TGI [3]: > 100 µM | GI50 [4]: 3.73 µM | TGI [4]: > 100 µM | GI50 [5]: 6.42 µM | TGI [5]: > 100 µM | GI50 [6]: 3.27 µM | TGI [6]: > 100 µM | GI50 [7]: 32.8 µM | TGI [7]: > 100 µM | GI50 [8]: 6.11 µM | TGI [8]: > 100 µM | GI50 [9]: 4.79 µM | TGI [9]: > 100 µM | GI50 [10]: 1.42 µM | TGI [10]: 90.5 µM | GI50 [11]: 2.6 µM | TGI [11]: 37.3 µM | GI50 [12]: 6.18 µM | TGI [12]: > 100 µM | GI50 [13]: 7.52 µM | TGI [13]: 50.8 µM | GI50 [14]: 2.9 µM | TGI [14]: 69 µM | GI50 [15]: 11.6 µM | TGI [15]: > 100 µM | GI50 [16]: 4.19 µM | TGI [16]: > 100 µM | GI50 [17]: 6.13 µM | TGI [17]: > 100 µM | GI50 [18]: 2.39 µM | TGI [18]: 15 µM | GI50 [19]: 3.11 µM | TGI [19]: 20.2 µM | GI50 [20]: 2.42 µM | TGI [20]: 58.3 µM | GI50 [21]: 5.46 µM | TGI [21]: 43 µM | GI50 [22]: 18.1 µM | TGI [22]: 75.2 µM | GI50 [23]: 10.2 µM | TGI [23]: > 100 µM | GI50 [24]: 0.75 µM | TGI [24]: 7.84 µM | GI50 [25]: 17.5 µM | TGI [25]: > 100 µM | GI50 [26]: 4.66 µM | TGI [26]: > 100 µM | GI50 [27]: 51.3 µM | TGI [27]: > 100 µM | GI50 [28]: 3 µM | TGI [28]: 19.6 µM | GI50 [29]: 0.641 µM | TGI [29]: > 100 µM | GI50 [30]: 5.28 µM | TGI [30]: > 100 µM | GI50 [31]: 5.62 µM | TGI [31]: > 100 µM | GI50 [32]: 16.3 µM | TGI [32]: > 100 µM | GI50 [33]: 1.58 µM | TGI [33]: > 100 µM | GI50 [34]: 10.7 µM | TGI [34]: > 100 µM | GI50 [35]: 1.7 µM | TGI [35]: 40 µM | GI50 [36]: 10 µM | TGI [36]: > 100 µM | GI50 [37]: 1.94 µM | TGI [37]: 40.4 µM | GI50 [38]: 0.943 µM | TGI [38]: > 100 µM | GI50 [39]: 9.04 µM | TGI [39]: > 100 µM | GI50 [40]: 5.83 µM | TGI [40]: > 100 µM | GI50 [41]: 1.96 µM | TGI [41]: > 100 µM | GI50 [42]: 6.81 µM | TGI [42]: > 100 µM | GI50 [43]: 2.99 µM | TGI [43]: 42.6 µM | GI50 [44]: 2.72 µM | TGI [44]: > 100 µM | GI50 [45]: 1.51 µM | TGI [45]: 30.5 µM | GI50 [46]: 7.35 µM | TGI [46]: > 100 µM | GI50 [47]: 11.9 µM | TGI [47]: > 100 µM | GI50 [48]: 9.66 µM | TGI [48]: > 100 µM | GI50 [49]: 12.3 µM | TGI [49]: > 100 µM | GI50 [50]: 9.68 µM | TGI [50]: > 100 µM | GI50 [51]: 8.29 µM | TGI [51]: > 100 µM | GI50 [52]: 13.2 µM | TGI [52]: > 100 µM | GI50 [53]: 1.68 µM | TGI [53]: 41.6 µM | GI50 [54]: 3.26 µM | TGI [54]: > 100 µM | GI50 [55]: 7.11 µM | TGI [55]: > 100 µM | GI50 [56]: 8.15 µM | TGI [56]: > 100 µM | GI50 [57]: 7.81 µM | TGI [57]: > 100 µM
